Test results as given in PMC9144402, “An Octopus-Derived Peptide with Antidiuretic Activity in Rats” (Marine Drugs, 2022).
Each block holds one molecule with its values, some of them ahead of it. Positions of bridges follow the written chain, without caps; N, C: chain ends. Residues, ends and D or L forms follow the SMILES beside them. No end group written: not given here.

What was measured:
Sprague-Dawley (SD) rats [1] = assay: Death and signs of toxicity after intravenous injection in SD rats; format: in vivo, rat; details: for death or signs of toxicity: injection, 'the same doses' (AVP: data not shown)
Sprague-Dawley (SD) rats [2] = assay: Antidiuretic experiment in SD rats (single tail intravenous injection, metabolic cage); format: in vivo, rat
[3] = administered intravenously; no reference printed ('generally known'); cited from earlier work
rat V1bR = system: rat V1bR; set-up: method as in PMID 9264324; details: ref [8]; cited from earlier work
rat V2R = system: rat V2R; set-up: method as in PMID 9264324; details: ref [8]; cited from earlier work
[4] = system: HEK293T human kidney cells; assay: CCK-8 cell viability assay and morphology, HEK293T; format: cell-based; details: for viable HEK293T cells: 0.1–50 μM
Experimental: Human kidney HEK293T cells were obtained from the American Type Culture Collection (ATCC, Manassas, VA, USA). The 293T cells were grown in DMEM supplemented with 10% fetal bovine serum (HyClone, Logan, UT, USA) and penicillin–streptomycin. Cells were incubated at 37 °C in a humidified atmosphere with 95% air/5% CO2. HEK293T cells (5 × 10^3) were incubated in 96-well plates to measure cell viability using a Cell Counting Kit-8 (CCK-8; Dojindo Laboratories, Kumamoto, Japan). After overnight incubation, the medium was changed to fresh medium containing CPT at doses of 50~0.1 μM in three wells each. Then, the cells were incubated for 24, 48, or 72 h and photographed under a phase-contrast microscope. We added 100 μL of fresh medium and 10 μL of CCK-8 solution to each well. After incubation for 3 h at 37 °C, the optical density (OD) at 450 nm was measured using a Spectramax i3x instrument (Molecular Devices, San Jose, CA, USA). The cell viability was calculated as follows: cell viability (%) = (OD (experiment) − OD (blank))/(OD (control) − OD (blank)) × 100%

human V1aR [5] = biological target: T1, human V1aR (Homo sapiens, UniProt P37288); assay: V1aR functional assay, antagonist effect (10 nM AVP-induced intracellular Ca^2+, fluorimetry, CHO cells); format: cell-based
T1 construct: host or cells: CHO
T1 sequence (P37288 whole entry): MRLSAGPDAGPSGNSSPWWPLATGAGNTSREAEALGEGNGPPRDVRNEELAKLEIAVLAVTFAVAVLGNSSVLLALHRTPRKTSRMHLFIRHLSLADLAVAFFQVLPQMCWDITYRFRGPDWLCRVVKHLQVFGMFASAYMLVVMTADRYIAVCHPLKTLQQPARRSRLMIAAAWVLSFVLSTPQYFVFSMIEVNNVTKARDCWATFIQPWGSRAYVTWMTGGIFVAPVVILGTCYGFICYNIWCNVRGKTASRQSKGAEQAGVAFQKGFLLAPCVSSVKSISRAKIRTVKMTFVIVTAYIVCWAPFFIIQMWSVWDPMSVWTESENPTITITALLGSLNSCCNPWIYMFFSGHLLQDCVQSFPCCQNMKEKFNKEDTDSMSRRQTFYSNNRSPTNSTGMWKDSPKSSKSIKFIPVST
Experimental: (§1) Detailed information about the cells tested and other experimental conditions are described in Table 2. Briefly, cells were transfected with a recombinant expression vector capable of expressing each type of human OXT/AVP receptor. To evaluate the agonist effects on OXTR, V1aR, and V1bR, the intracellular Ca^2+ increase after treatment with OTP or CPT was measured by fluorimetry. […] For V2R receptors, cells were treated with peptides with or without the stimulant for 30 min. After that, cyclic AMP (cAMP) concentrations were measured by homogeneous time-resolved fluorescence (HTRF). The results were represented as the percent submaximal response achieved by the stimulant. All experiments were performed in triplicate. Data are presented as the mean ± standard error of the mean. The 50% effective concentration (EC50) and 50% inhibitory concentration (IC50) values were determined using a 4-parameter logistic fitting of a dose–response curve using SigmaPlot 10.0 (Systat Software, Palo Alto, CA, USA).

human V2R = biological target: T2, human V2R (Homo sapiens, UniProt P30518); assay: V2R functional assay, agonist effect (cAMP accumulation, HTRF, CHO cells); format: cell-based
T2 construct: host or cells: CHO
Experimental: as §1

human OXTR [6] = biological target: T3, human OXTR (Homo sapiens, UniProt P30559); assay: OXTR functional assay, agonist effect (intracellular Ca^2+ increase, fluorimetry, transfected ECV304 cells); format: cell-based; details: up to 50 μM, RT, % of control response (1 µM OXT), triplicate
T3 construct: host or cells: ECV304
T3 sequence (P30559 1-389): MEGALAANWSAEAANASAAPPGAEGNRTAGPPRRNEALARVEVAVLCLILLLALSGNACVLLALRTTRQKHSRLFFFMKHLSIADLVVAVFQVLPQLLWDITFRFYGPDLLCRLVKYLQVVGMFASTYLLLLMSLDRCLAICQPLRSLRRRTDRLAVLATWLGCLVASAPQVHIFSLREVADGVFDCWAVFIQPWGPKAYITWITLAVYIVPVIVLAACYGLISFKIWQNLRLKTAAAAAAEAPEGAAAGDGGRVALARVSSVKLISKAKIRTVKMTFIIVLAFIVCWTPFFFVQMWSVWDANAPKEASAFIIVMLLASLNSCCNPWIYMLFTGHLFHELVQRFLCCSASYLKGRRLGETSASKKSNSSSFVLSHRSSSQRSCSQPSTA
Experimental: as §1

human V1bR = biological target: T4, human V1bR (Homo sapiens, UniProt P47901); assay: V1bR functional assay, agonist effect (intracellular Ca^2+ increase, fluorimetry, RBL cells); format: cell-based
T4 construct: host or cells: RBL
T4 sequence (P47901 1-424): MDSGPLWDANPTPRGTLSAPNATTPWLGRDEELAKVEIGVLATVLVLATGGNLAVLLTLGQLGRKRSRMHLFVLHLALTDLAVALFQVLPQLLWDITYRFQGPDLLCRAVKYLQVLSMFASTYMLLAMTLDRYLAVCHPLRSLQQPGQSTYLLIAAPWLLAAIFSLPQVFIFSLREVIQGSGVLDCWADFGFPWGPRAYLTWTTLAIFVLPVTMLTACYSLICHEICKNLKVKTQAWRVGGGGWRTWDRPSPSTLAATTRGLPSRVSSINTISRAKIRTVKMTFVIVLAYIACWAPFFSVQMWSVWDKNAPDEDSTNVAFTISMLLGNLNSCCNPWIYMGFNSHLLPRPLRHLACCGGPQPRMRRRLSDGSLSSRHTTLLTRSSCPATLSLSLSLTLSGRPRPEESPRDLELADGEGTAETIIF
Experimental: as §1

human V1aR [7] = biological target: T1, human V1aR; assay: V1aR functional assay, agonist effect (intracellular Ca^2+ increase, fluorimetry, CHO cells); format: cell-based; details: up to 50 μM, RT, % of control response (1 µM AVP), triplicate
Experimental: as §1

human OXTR [8] = biological target: T3, human OXTR; assay: OXTR functional assay, antagonist effect (30 nM OXT-induced intracellular Ca^2+, fluorimetry, ECV304 cells); format: cell-based
Experimental: as §1

[9] = treatment of nocturia, enuresis, and diabetes insipidus; ref [26]; cited from earlier work
Excerpt: (§2) Currently, desmopressin is the antidiuretic drug of choice for the treatment of excessive and/or uncontrolled urination. […] Although desmopressin is generally considered safe and efficacious in the treatment o ...

V1aR [10] = details: no reference given; cited from earlier work
Excerpt: as §2

V1aR [11] = details: ref [17]; cited from earlier work
[12] = biological target: human vasopressin receptor V1aR (human) (UniProt P37288)
Sequence of human vasopressin receptor V1aR (human) (P37288 whole entry): as the sequence (P37288 whole entry) above

[13] = biological target: human oxytocin receptor (human) (UniProt P30559)
[14] = biological target: human AVP type 2 receptor (human) (UniProt P30518)
[15] = biological target: T5, human AVP type 1b receptor (human) (UniProt P47901)
T5 sequence: T4 sequence (P47901 1-424)

[16] = biological target: human oxytocin receptor (human) (UniProt P30559); remark: listed apart in the source
[17] = biological target: human AVP type 2 receptor (human) (UniProt P30518); remark: listed apart in the source
[18] = 24 h after treatment, CCK-8, triplicate
[19] = 48 h after treatment, CCK-8, triplicate
[20] = nanomolar level of CPT (Figure 2E, 36.55 nM), calculated by curve-fitting

Molecule: NC(=O)CC[C@@H]1NC(=O)[C@H](Cc2ccccc2)NC(=O)[C@H](Cc2ccc(O)cc2)NC(=O)[C@@H](N)CSSC[C@@H](C(=O)N2CCC[C@H]2C(=O)N[C@@H](CCCN=C(N)N)C(=O)NCC(N)=O)NC(=O)[C@H](CC(N)=O)NC1=O [AVP, arginine vasopressin]
- lethality (Sprague-Dawley (SD) rats [1]; 0.001 mg/mL/kg micro intravenous tail administration): occasionally lethal
- death or signs of toxicity (Sprague-Dawley (SD) rats [1]): occasionally caused death
- antidiuretic effect (in words) (Sprague-Dawley (SD) rats [2]; SD rats, 0.001 mg/mL/kg micro intravenous tail administration): shows an antidiuretic effect
- half-life [3]: several minutes
- EC50 (rat V1bR): 1.31 nM
- EC50 (rat V2R): 43.5 nM
- viable HEK293T cells [4, 18]: Over 98%
- viable HEK293T cells [4, 19]: Over 98%
- viability compared to PBS control (in words) ([4]; 72 h, 0.1–10 μM, CCK-8, triplicate): slightly increase the viability

Molecule: CC[C@H](C)[C@H](NC(=O)[C@@H]1CCCN1C(=O)[C@@H]1CSSC[C@H](N)C(=O)N[C@@H](Cc2ccc(O)cc2)C(=O)N[C@@H](Cc2ccccc2)C(=O)N[C@@H](CCCNC(=N)N)C(=O)N[C@@H](CC(N)=O)C(=O)N1)C(=O)NCC(N)=O [CPT, cephalotocin] (H-CYFRNCPIG-NH2; disulfide 1-6)
- death or signs of toxicity (Sprague-Dawley (SD) rats [1]): did not cause any death or signs of toxicity
- lethality (Sprague-Dawley (SD) rats [1]; single intravenous injection (1 mg/mL/kg)): did not kill the experimental animals
- IC50 (human V1aR [5]): 1230 nM
- inhibition at 1.65 µM (human V1aR [5]; CHO, micromolar level (Figure 2F, 1.65 μM), calculated by curve-fitting, read-out: expected V1aR inhibition, micromolar level): ≥ 50%
- expected effect on V1aR, nanomolar level (human V1aR [5]; [20]): < 20%
- EC50 (human V2R; CHO, cAMP, HTRF, 30 min RT, 4-parameter logistic fitting, triplicate): 12.1 nM
- expected V2R activation, nanomolar level (human V2R; [20]): ~ 80%
- OXTR-mediated intracellular Ca^2+ increase (agonist effect) (human OXTR [6]): not activated
- EC50 (human V1bR; RBL, intracellular Ca^2+, fluorimetry, RT, 4-parameter logistic fitting, triplicate): 10 nM
- expected V1bR activation, nanomolar level (human V1bR; [20]): ~ 80%
- V1aR-mediated intracellular Ca^2+ increase (agonist effect) (human V1aR [7]): not activated
- cell morphology [4]: unchanged
- viable HEK293T cells [4, 18]: Over 98%
- viable HEK293T cells [4, 19]: Over 98%
- IC50 (human OXTR [8]; ECV304, stimulant 30 nM OXT, RT, fluorimetry, 4-parameter logistic fitting, triplicate): > 50000 nM
- expected effect on OXTR, nanomolar level (human OXTR [8]; [20]): < 20%

Molecule: Mpr-YFQNCP(D-Arg)G-NH2 (disulfide bond) (disulfide) [Desmopressin, 1-deamino-8-D-arginine vasopressin, positive control]
- death or signs of toxicity (Sprague-Dawley (SD) rats [1]): did not cause any death or signs of toxicity
- osmolarity (in words) (Sprague-Dawley (SD) rats [2]; male rats under 200 g, single microvenous injection, n=6 for each group): no change
- serious adverse effect [9]: hyponatremia
- V1aR-mediated pressor activity (V1aR [10]): low
- half-life [3]: several hours

Molecule: inotocin
- V1aR activity (in words) (V1aR [11]): selective antagonists of V1aR

- IC50 of the antagonist effect on intracellular Ca^2+ release induced by 10 nM AVP in CHO cells expressing human V1aR (pair blocked: AVP and V1aR) [12]: 1230 nM
- IC50 of the antagonist effect on intracellular Ca^2+ release induced by 30 nM OXT in ECV304 cells expressing human OXTR (pair blocked: OXT and OXTR) [13]: > 50000 nM
- EC50 of V2R-mediated cAMP accumulation (agonist effect) in CHO cells expressing human V2R, HTRF [14]: 12.1 nM
- EC50 of V1bR-mediated intracellular Ca^2+ release (agonist effect) in RBL cells expressing human V1bR, fluorimetry [15]: 10 nM
B1: Cephalotocin (peptide)
peptide: CYFRNCPIG-NH2
modifications: disulfide 1-6; N-terminus assumed
SMILES: CC[C@H](C)[C@H](NC(=O)[C@@H]1CCCN1C(=O)[C@@H]1CSSC[C@H](N)C(=O)N[C@@H](Cc2ccc(O)cc2)C(=O)N[C@@H](Cc2ccccc2)C(=O)N[C@@H](CCCNC(=N)N)C(=O)N[C@@H](CC(N)=O)C(=O)N1)C(=O)NCC(N)=O

- antagonist effect on intracellular Ca^2+ release induced by 30 nM OXT in ECV304 cells expressing human OXTR (pair blocked: OXT and OXTR), inhibition rate at 50 μM OTP [16]: 30%
- V2R-mediated cAMP accumulation (agonist effect) in CHO cells expressing human V2R, percent of the control response at 50 μM OTP [17]: < 30%
B2: Octopressin (peptide)
peptide: CYWTSCPIG-NH2
modifications: disulfide 1-6; N-terminus assumed
SMILES: CC[C@H](C)[C@H](NC(=O)[C@@H]1CCCN1C(=O)[C@@H]1CSSC[C@H](N)C(=O)N[C@@H](Cc2ccc(O)cc2)C(=O)N[C@@H](Cc2c[nH]c3ccccc23)C(=O)N[C@@H]([C@@H](C)O)C(=O)N[C@@H](CO)C(=O)N1)C(=O)NCC(N)=O
